# In patent US9926297B2, “Bicyclic AZA compounds as muscarinic M1 receptor and/or M4 receptor agonists” (Heptares Therapeutics Limited, priority 2014, dated 2018):
# Where two headings read alike, the source gives them in different places.
# Columns and labels:
# [1] = biological target: T1, human muscarinic M4 receptor (Homo sapiens, UniProt P08173); assay: Alphascreen Surefire phospho-ERK1/2 functional assay, M4; type: cell-based; details: for EC50: phospho-ERK1/2, * = variable results; for Emax: CHO
# T1 construct: expressed in transfected cells
# T1 sequence (P08173 1-479): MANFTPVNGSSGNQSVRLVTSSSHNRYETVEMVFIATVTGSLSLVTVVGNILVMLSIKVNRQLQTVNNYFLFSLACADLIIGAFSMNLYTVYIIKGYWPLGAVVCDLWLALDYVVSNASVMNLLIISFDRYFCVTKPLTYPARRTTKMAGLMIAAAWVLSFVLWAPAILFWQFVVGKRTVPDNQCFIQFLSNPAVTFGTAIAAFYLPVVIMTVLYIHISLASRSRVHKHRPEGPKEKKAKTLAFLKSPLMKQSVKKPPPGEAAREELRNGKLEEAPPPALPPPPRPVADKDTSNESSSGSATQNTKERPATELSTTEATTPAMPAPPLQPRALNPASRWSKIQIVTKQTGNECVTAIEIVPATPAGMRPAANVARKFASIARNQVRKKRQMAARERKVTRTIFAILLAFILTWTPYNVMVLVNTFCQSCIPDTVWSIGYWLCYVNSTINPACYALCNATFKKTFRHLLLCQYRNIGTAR
# [2] = biological target: human muscarinic M3 receptor (Homo sapiens, UniProt P20309); assay: Alphascreen Surefire phospho-ERK1/2 functional assay, M3; details: for Emax: CHO; for EC50: pEC50 M3, CHO cells stably expressing human M3
# Sequence of human muscarinic M3 receptor (P20309 whole entry): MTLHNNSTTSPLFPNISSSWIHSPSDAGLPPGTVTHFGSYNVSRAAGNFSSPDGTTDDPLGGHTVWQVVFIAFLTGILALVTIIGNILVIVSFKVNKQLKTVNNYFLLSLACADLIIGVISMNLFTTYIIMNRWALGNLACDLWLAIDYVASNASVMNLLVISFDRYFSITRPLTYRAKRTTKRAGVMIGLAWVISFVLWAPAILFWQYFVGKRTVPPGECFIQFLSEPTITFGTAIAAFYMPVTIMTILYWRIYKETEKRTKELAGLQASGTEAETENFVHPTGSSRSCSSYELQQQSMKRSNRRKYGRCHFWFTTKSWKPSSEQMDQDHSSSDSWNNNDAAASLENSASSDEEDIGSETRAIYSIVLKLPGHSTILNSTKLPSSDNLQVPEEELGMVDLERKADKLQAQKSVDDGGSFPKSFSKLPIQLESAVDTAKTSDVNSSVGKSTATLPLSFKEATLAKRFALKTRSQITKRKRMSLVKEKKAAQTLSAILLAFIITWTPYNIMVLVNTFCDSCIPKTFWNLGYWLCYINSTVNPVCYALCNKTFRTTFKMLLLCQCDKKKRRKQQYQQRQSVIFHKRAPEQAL
# [3] = biological target: T2, human muscarinic M1 receptor (Homo sapiens, UniProt P11229); assay: Alphascreen Surefire phospho-ERK1/2 functional assay, M1; type: cell-based; details: for EC50: phospho-ERK1/2, * = variable results; for Emax: CHO
# T2 sequence (P11229 1-460): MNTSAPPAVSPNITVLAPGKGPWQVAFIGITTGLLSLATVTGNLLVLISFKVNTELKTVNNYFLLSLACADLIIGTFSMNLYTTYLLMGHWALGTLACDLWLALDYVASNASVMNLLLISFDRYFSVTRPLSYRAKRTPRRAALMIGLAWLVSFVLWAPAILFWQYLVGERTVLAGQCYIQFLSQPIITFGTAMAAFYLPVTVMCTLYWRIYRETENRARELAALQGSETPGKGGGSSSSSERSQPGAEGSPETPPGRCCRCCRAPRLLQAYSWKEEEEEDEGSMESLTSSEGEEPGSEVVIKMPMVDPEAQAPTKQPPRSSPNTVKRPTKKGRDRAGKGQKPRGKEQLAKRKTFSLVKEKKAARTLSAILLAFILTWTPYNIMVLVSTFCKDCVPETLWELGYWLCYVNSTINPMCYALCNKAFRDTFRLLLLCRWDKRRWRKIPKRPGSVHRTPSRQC
# [4] = biological target: T3, human muscarinic M2 receptor (Homo sapiens, UniProt P08172); assay: Alphascreen Surefire phospho-ERK1/2 functional assay, M2; details: for Emax: CHO
# T3 sequence (P08172 1-466): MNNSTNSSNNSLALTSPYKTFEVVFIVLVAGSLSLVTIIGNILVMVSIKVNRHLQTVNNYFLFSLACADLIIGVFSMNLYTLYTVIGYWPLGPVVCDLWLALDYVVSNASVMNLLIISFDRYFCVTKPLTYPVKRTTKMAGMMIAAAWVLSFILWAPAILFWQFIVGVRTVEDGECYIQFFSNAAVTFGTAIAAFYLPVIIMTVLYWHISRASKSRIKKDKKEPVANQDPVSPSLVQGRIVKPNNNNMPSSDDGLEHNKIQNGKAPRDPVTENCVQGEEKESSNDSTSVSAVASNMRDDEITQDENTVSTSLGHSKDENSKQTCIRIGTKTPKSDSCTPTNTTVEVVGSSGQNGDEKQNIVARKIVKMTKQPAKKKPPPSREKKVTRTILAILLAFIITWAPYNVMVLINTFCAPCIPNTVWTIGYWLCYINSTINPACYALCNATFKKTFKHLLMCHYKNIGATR
# [5] = CHO cells stably expressing human M4, read-out: pEC50 M4 (converted)
# [6] = read-out: % Emax cf. ACh, M4, CHO cells stably expressing human M4, relative to ACh
# [7] = read-out: % Emax cf. ACh, M3, CHO cells stably expressing human M3, relative to ACh
# [8] = phospho-ERK1/2, * = variable results
# [9] = CHO cells stably expressing human M1, read-out: pEC50 M1 (converted)
# [10] = read-out: % Emax cf. ACh, M1, CHO cells stably expressing human M1, relative to ACh
# [11] = read-out: % Emax cf. ACh, M2, CHO cells stably expressing human M2, relative to ACh
# [12] = CHO cells stably expressing human M4, relative to ACh
# [13] = CHO cells stably expressing human M1, relative to ACh
# [14] = CHO cells stably expressing human M2, relative to ACh
Compound,"EC50 [1, 5]","Emax [1, 6]","Emax [2, 7]","EC50 [2, 8]","EC50 [3, 9]","Emax [3, 10]",EC50 [4],"Emax [4, 11]","% Emax cf. ACh, M4 [1, 12]","% Emax cf. ACh, M1 [3, 13]","% Emax cf. ACh, M2 [4, 14]","pEC50 M3 ([2]; CHO cells stably expressing human M3, phospho-ERK1/2, * = variable results)","% Emax cf. ACh, M3 ([2]; CHO cells stably expressing human M3, relative to ACh)","pEC50 M2 ([4]; CHO cells stably expressing human M2, phospho-ERK1/2, * = variable results)","Emax ([1]; read-out: % Emax cf. ACh, M4)","EC50 ([1]; pEC50 M4, CHO cells stably expressing human M4)","Emax ([2]; read-out: % Emax cf. ACh, M3)","Emax ([3]; read-out: % Emax cf. ACh, M1)","EC50 ([3]; pEC50 M1, CHO cells stably expressing human M1)","Emax ([4]; read-out: % Emax cf. ACh, M2)"
"CCOC(=O)N1CCC2(CC(N3CCC(c4nccs4)CC3)C2)C1 (single isomer, unassigned) [1-25 Isomer 2, ethyl 2-[4-(1,3-thiazol-2-yl)piperidin-1-yl]-6-azaspiro[3.4]octane-6-carboxylate]",3.98 nM,128%,13%,> 20000 nM,50.1 nM,110%,> 20000 nM,15%,–,–,–,–,–,–,–,–,–,–,–,–
"CCOC(=O)N1CCC2(CC(N3CCC(c4nnc[nH]4)CC3)C2)C1 (single isomer, unassigned) [1-26 Isomer 2, ethyl 2-[4-(4H-1,2,4-triazol-3-yl)piperidin-1-yl]-6-azaspiro[3.4]octane-6-carboxylate]",200 nM,76%,53%,794 nM,2510 nM,46%,> 20000 nM,99%,–,–,–,–,–,–,–,–,–,–,–,–
"CCOC(=O)N1CCC2(CC(N3CCC(c4ncns4)CC3)C2)C1 (single isomer, unassigned) [1-30 Isomer 2, ethyl 2-[4-(1,2,4-thiadiazol-5-yl)piperidin-1-yl]-6-azaspiro[3.4]octane-6-carboxylate]",12.6 nM,101%,5%,> 20000 nM,316 nM,37%,> 20000 nM,9%,–,–,–,–,–,–,–,–,–,–,–,–
"CCOC(=O)N1CCC2(CC(N3CCC(n4cccc4)CC3)C2)C1 (single isomer, unassigned) [1-32 Isomer 2, ethyl 2-[4-(1H-pyrrol-1-yl)piperidin-1-yl]-6-azaspiro[3.4]octane-6-carboxylate]",6.31 nM,126%,16%,> 20000 nM,79.4 nM,113%,> 20000 nM,56%,–,–,–,–,–,–,–,–,–,–,–,–
"CCOC(=O)N1CCC2(CC(N3CCC(n4cc(C)cn4)CC3)C2)C1 (single isomer, unassigned) [1-34 Isomer 1, ethyl 2-[4-(4-methyl-1H-pyrazol-1-yl)piperidin-1-yl]-6-azaspiro[3.4]octane-6-carboxylate]",158 nM,–,0%,> 20000 nM,501 nM,–,> 20000 nM,–,48%,49%,10%,–,–,–,–,–,–,–,–,–
"CCOC(=O)N1CCC2(CC(N3CCC(n4cc(C)cn4)CC3)C2)C1 (single isomer, unassigned) [1-34 Isomer 2, ethyl 2-[4-(4-methyl-1H-pyrazol-1-yl)piperidin-1-yl]-6-azaspiro[3.4]octane-6-carboxylate]",2.51 nM,–,–,–,7.94 nM,–,–,–,117%,130%,43%,< 4.7,0%,< 4.7,–,–,–,–,–,–
"CCOC(=O)N1CCC2(CC(N3CCC(OC)(c4ncc[nH]4)CC3)C2)C1 (single isomer, unassigned) [1-38 Isomer 2, ethyl 2-[4-(1H-imidazol-2-yl)-4-methoxypiperidin-1-yl]-6-azaspiro[3.4]octane-6-carboxylate]",–,–,–,> 20000 nM,–,–,> 20000 nM,–,–,–,–,–,–,–,98%,794 nM,19%,31%,100 nM,14%
"COC(=O)N1CCC2(CC(N3CCC(n4cc(C)cn4)CC3)C2)C1 (single isomer, unassigned) [1-42 Isomer 2, methyl 2-[4-(4-methyl-1H-pyrazol-1-yl)piperidin-1-yl]-6-azaspiro[3.4]octane-6-carboxylate]",6.31 nM,76%,16%,> 20000 nM,39.8 nM,123%,316 nM,27%,–,–,–,–,–,–,–,–,–,–,–,–
"CCOC(=O)N1CCC2(CC(N3CCC(c4ccon4)CC3)C2)C1 (single isomer, unassigned) [1-43 Isomer 2, ethyl 2-[4-(1,2-oxazol-3-yl)piperidin-1-yl]-6-azaspiro[3.4]octane-6-carboxylate]",31.6 nM,61%,8%,> 20000 nM,158 nM,32%,> 20000 nM,7%,–,–,–,–,–,–,–,–,–,–,–,–
"CCOC(=O)N1CCC2(CC(N3CCC(n4ccc(C)n4)CC3)C2)C1 (single isomer, unassigned) [1-44 Isomer 2, ethyl 2-[4-(3-methyl-1H-pyrazol-1-yl)piperidin-1-yl]-6-azaspiro[3.4]octane-6-carboxylate]",6.31 nM,126%,7%,> 20000 nM,79.4 nM,126%,> 20000 nM,80%,–,–,–,–,–,–,–,–,–,–,–,–
"COC(=O)N1CCC2(CC(N3CCC(n4ccc(C)n4)CC3)C2)C1 (single isomer, unassigned) [1-45 Isomer 2, methyl 2-[4-(3-methyl-1H-pyrazol-1-yl)piperidin-1-yl]-6-azaspiro[3.4]octane-6-carboxylate]",20 nM,80%,26%,> 20000 nM,316 nM,80%,1580 nM,56%,–,–,–,–,–,–,–,–,–,–,–,–
"CCOC(=O)N1CCC2(CC(N3CCC(c4ccnn4CC)CC3)C2)C1 (single isomer, unassigned) [1-47 Isomer 2, ethyl 2-[4-(1-ethyl-1H-pyrazol-5-yl)piperidin-1-yl]-6-azaspiro[3.4]octane-6-carboxylate]",15.8 nM,81%,19%,> 20000 nM,> 20000 nM,7%,≥ 20000 nM,82%,–,–,–,–,–,–,–,–,–,–,–,–
"CCCn1nccc1C1CCN(C2CC3(CCN(C(=O)OCC)C3)C2)CC1 (single isomer, unassigned) [1-49 Isomer 2, ethyl 2-[4-(1-propyl-1H-pyrazol-5-yl)piperidin-1-yl]-6-azaspiro[3.4]octane-6-carboxylate]",79.4 nM,92%,9%,> 20000 nM,6310 nM,71%,> 20000 nM,21%,–,–,–,–,–,–,–,–,–,–,–,–
"CCOC(=O)N1CCC2(CC(N3CCC(c4cscn4)CC3)C2)C1 (single isomer, unassigned) [1-50 Isomer 2, ethyl 2-[4-(1,3-thiazol-4-yl)piperidin-1-yl]-6-azaspiro[3.4]octane-6-carboxylate]",2 nM,122%,8%,> 20000 nM,7.94 nM,124%,> 20000 nM,20%,–,–,–,–,–,–,–,–,–,–,–,–
